# Key:
# [1] = target: T1, huntingtin (Homo sapiens, UniProt P42858, INS38QQQQQQQQQQQQQQQQQQQQQQQQQQQQQQ); assay: cell culture model of Huntington's chorea: COS1 cells transfected with pTL1-CAG51, membrane filter test; type: cell-based; details: 40-44 h, membrane filter method
# T1 construct: expressed in transfected cells; host or cells: COS1 cells, transient transfection
# Method: The compounds were then tested in several cell culture models of polyglutamine diseases, inter alia Huntington's chorea. For this purpose, COS1 cells were transiently transfected with the plasmid pTL1-CAG51 already described above (Sittler, A., Walter, S., Wedemeyer, N., Hasenbank, R., Scherzinger, E., Eickhoff, H., Bates, G. P., Lehrach, H. and Wanker, E. E. (1998) Mol Cell 2, 427-36) and cultivated for 44 h in the presence of solvents or the chemical agents. Subsequently, the amount of aggregate was determined with the help of the membrane filter test as described by Heiser et al. (2002). […] The latter could be deduced from the total amount of protein in the cell lysate (FIG. 2B) which was determined with the help of cell extracts.
# 7-Amino-8-(2,4-dihydroxy-6-methyl-phenyl)-1,9-dimethyl-phenoxazine-3-one was then tested in a cell culture model of Huntington's chorea. For this purpose, COS1 cells were transiently transfected with the plasmid pTL1-CAG51 already described above (Sittler, A., Walter, S., Wedemeyer, N., Hasenbank, R., Scherzinger, E., Eickhoff, H., Bates, G. P., Lehrach, H. and Wanker, E. E. (1998) Mol Cell 2, 427-36) and cultivated for 40-44 h in the presence of solvents or 7-amino-8-(2,4-dihydroxy-6-methyl-phenyl)-1,9-dimethyl-phenoxazine-3-one. Subsequently, the amount of aggregate was determined with the help of the membrane filter test as described by Heiser et al. (2002). […] The latter could be deduced from the total amount of protein (FIG. 2B) which was determined with the help of cell extracts.
# [2] = system: huntingtin-Exon-1 with 103 glutamines (Htt103Q-EGFP); assay: stably transfected PC12 cell line with inducible Htt103Q-EGFP, membrane filter test; type: cell-based; details: muristerone induced, 44 h, membrane filter method
# Method: The compounds were additionally tested in a stably transfected PC12 cell line. This cell line was transfected with an ecdysone-inducible plasmid whose N-terminal codes for huntingtin-Exon-1 marked with GFP with 103 glutamines (Htt103Q-EGFP). The Htt103Q-EGFP expression was induced with muristerone and the cells were subsequently cultivated for 44 h in the presence of solvents or the chemical agents. Subsequently, the amount of aggregate was determined with the help of the membrane filter test as described by Heiser et al. (2002). Furthermore, the amount of aggregate was determined with the help of a fluorescence measurement (data not shown). […] The latter could be deduced from the total amount of protein in the cell lysate (FIG. 2B) which was determined with the help of cell extracts.
# [3] = target: T2, mutant huntingtin (GST fusion protein GST-HDQ51) (Homo sapiens, UniProt P42858, INS38QQQQQQQQQQQQQQQQQQQQQQQQQQQQQQ); assay: in vitro aggregation of mutant huntingtin, membrane filter test; type: biochemical; details: membrane filter method
# T2 construct: GST (N)
# Method: As in the tests described by Heiser et al. (2002), the protein was used for aggregation tests to which either only solvent or solvent and the chemical agent in question was added. Aliquots of these batches were examined by means of the membrane filter test and electron microscopy.
# As in the tests described by Heiser et al. (2002), the protein was used for aggregation tests to which either only solvent or solvent and 7-amino-8-(2,4-dihydroxy-6-methyl-phenyl)-1,9-dimethyl-phenoxazine-3-one was added. Aliquots of these batches were examined by means of the membrane filter test (FIG. 1B) and electron microscopy (FIGS. 1E and 1F).
# [4] = target: amyloid-beta fibrils (Homo sapiens, UniProt P05067); assay: binding to amyloid-beta aggregates located on a cellulose acetate membrane; details: colored substances
# From the text: FIG. 16: Binding to amyloid-beta aggregates located on a cellulose acetate membrane
# [5] = target: T3, wild type Aβ1-42 (Homo sapiens, UniProt P05067); assay: aggregation assay with wild type Aβ1-42, membrane filter method; type: biochemical; details: peptide 15 μM, pH 7.4, 42 h, 37° C.
# T3 construct: non-mutated (wild type) Aβ1-42
# Method: Analogously, the compounds were also examined in aggregation assays with the amyloid β-peptide Aβ1-42(E22Q), which is a particularly rapidly aggregating variant of amyloid β, as well as with non-mutated (wild type) Aβ1-42. For this purpose, the peptide was incubated at a concentration of 15 μM in a phosphate buffer with a physiological pH value of 7.4 for 42 h at 37° C. and subsequently, aliquots were examined by means of the membrane filter method (Figure) or electron microscopy (Figures) as well. […] Cell viability measurements were carried out in neuronally differentiated PC12 cells to which beta-amyloid and the substances to be tested were added extracellularly in order to examine whether the compounds are able to reduce toxicity caused by amyloid-beta. After 48 h the viability of the cells (approximately corresponds to the number of vital cells) was measured.
# [6] = system: alpha-synuclein; assay: alpha-synuclein amyloid fibril formation, electron microscopy; type: biochemical; details: wild type protein or mutant (A53T)
# From the text: For this purpose, the wild type protein or a mutant (A53T) was used.
# T3 sequence (P05067 672-713 limits assumed): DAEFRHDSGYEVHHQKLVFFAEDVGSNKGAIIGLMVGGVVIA
# Chain of amyloid-beta fibrils (P05067 672-713 limits assumed): as above
# T1 sequence (P42858 with tags, fused parts or gaps with the stated changes limits assumed): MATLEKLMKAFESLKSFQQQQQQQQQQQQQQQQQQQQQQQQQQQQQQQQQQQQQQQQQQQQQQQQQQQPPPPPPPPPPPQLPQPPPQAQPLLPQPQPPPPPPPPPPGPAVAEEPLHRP
# T2 sequence (P42858 with tags, fused parts or gaps with the stated changes limits assumed): as above
molecule,measurement,setting,value
O=C(Nc1nccs1)c1ccc(-c2ccc(C(=O)Nc3nccs3)o2)cc1 [5-[4-(Thiazole-2-ylcarbamoyl)-phenyl]-furan-2-carboxylic acid thiazole-2-ylamide],Inhibition of the aggregation of huntingtin in mammalian cells,[1],Inhibition of the aggregation
"C1=CC2=Nc3ccccc3OC2=CC1 [3H-phenoxazine, 3H-Phenoxazine]",Inhibition of the aggregation of huntingtin in mammalian cells,[1],Inhibition of the aggregation
"CN(C)CCCNc1nc2c(ccc3[nH]c(=O)c(C#N)cc32)s1 [2-(3-dimethylamino-propylamino)-7-oxo-6,7-dihydro-thiazolo[4,5-f]quinoline-8-carbonitrile]",Inhibition of the aggregation of huntingtin (Exon-1) in mammalian cells,[2],Inhibition of the aggregation
CN1C(CO)=Nc2cccc3cccc1c23 [(1-methyl-1H-perimidine-2-yl)-methanol],Inhibition of the aggregation of huntingtin (Exon-1) (SDS-insoluble aggregates),[3],Inhibition of the aggregation
"N#Cc1cc2c(ccc3sc(N)nc32)[nH]c1=O [2-Amino-7-oxo-6,7-dihydro-thiazolo[4,5-f]quinoline-8-carbonitrile]",Inhibition of the aggregation of huntingtin (Exon-1) in mammalian cells,[2],Inhibition of the aggregation
gamma-amino-orcein,direct binding to amyloid-beta fibrils,[4],bind directly to amyloid-beta fibrils
Cc1ccc(C2=Nc3cccc4cccc(c34)N2)cc1 [2-p-tolyl-1H-perimidine],Inhibition of the aggregation of wild type Aβ1-42 (SDS-insoluble aggregates),[5],Inhibition of the aggregation
"c1cc2c3c(cccc3c1)NC(c1c[nH]cn1)=N2 [2-(1H-imidazole-4-yl)-1H-perimidine, 2-(1H-Imidazole-4-yl)-1H-perimidine]",Inhibition of the aggregation of wild type Aβ1-42 (SDS-insoluble aggregates),[5],Inhibition of the aggregation
"COC(=O)C1CC2=C(Cc3ccccc32)CN1c1ccco1 (centres unmarked) [2-Furan-2-yl-2,3,4,9-tetrahydro-1H-indenol[2,3-c]pyridine-3-carboxylic acid methyl ester]",Inhibition of the aggregation of wild type Aβ1-42 (SDS-insoluble aggregates),[5],Inhibition of the aggregation
O=c1ccc2nc3ccccc3oc-2c1 [phenoxazone],direct binding to amyloid-beta fibrils,[4],bind directly to amyloid-beta fibrils
"N#Cc1cc2c(ccc3sc(NCCN4CCCCC4)nc32)[nH]c1=O [7-Oxo-2-(2-piperidine-1-yl-ethylamino)-6,7-dihydrothiazolo[4,5-f]quinoline-8-carbonitrile]",Inhibition of the aggregation of huntingtin (Exon-1) in mammalian cells,[2],Inhibition of the aggregation
O=c1ccc2nc3ccccc3oc-2c1 [phenoxazin-3-one],Inhibition of the aggregation of huntingtin in mammalian cells,[1],Inhibition of the aggregation
"O=C(O[C@@H]1Cc2c(O)cc(O)cc2O[C@H]1c1cc(O)c(O)c(O)c1)c1cc(O)c(O)c(O)c1 [GCG, (−)-Gallocatechin gallate]",Inhibition of the aggregation of alpha-synuclein (amyloid fibrils),[6],Inhibition of the aggregation
"CN(C)CCN(C=O)c1nc2c(ccc3[nH]c(=O)c(C#N)cc32)s1 [N-(8-Cyano-7-oxo-6,7-dihydro-thiazolo[4,5-f]quinoline-2-yl)-N-(2-dimethylamino-ethyl-formamide]",Inhibition of the aggregation of huntingtin (Exon-1) in mammalian cells,[2],Inhibition of the aggregation
Cc1cc(O)cc(O)c1-c1c(O)cc2oc3cc(=O)c(-c4c(C)cc(O)cc4O)c(C)c-3nc2c1C [beta-hydroxy-orcein],direct binding to amyloid-beta fibrils,[4],bind directly to amyloid-beta fibrils
same,Inhibition of the aggregation of wild type Aβ1-42 (SDS-insoluble aggregates),[5],Inhibition of the aggregation
"CCOC(=O)C(CC(C)C)c1nc(-c2ccccc2)ns1 (centres unmarked) [4-methyl-2-(3-phenyl-[1,2,4]thiadiazole-5-yl)-pentanoic acid ethyl ester]",Inhibition of the aggregation of huntingtin in mammalian cells,[1],Inhibition of the aggregation
alpha-amino-orceimine,direct binding to amyloid-beta fibrils,[4],bind directly to amyloid-beta fibrils
Cc1cc(O)cc(O)c1-c1c(N)cc2oc3cc(=N)c(-c4c(C)cc(O)cc4O)c(C)c-3nc2c1C [beta-amino-orceimine],direct binding to amyloid-beta fibrils,[4],bind directly to amyloid-beta fibrils
alpha-hydroxy-orcein,Inhibition of the aggregation of huntingtin in mammalian cells,[1],Inhibition of the aggregation
same,direct binding to amyloid-beta fibrils,[4],bind directly to amyloid-beta fibrils
Cc1cc(O)cc(O)c1-c1c(N)cc2oc3cc(=O)c(-c4c(C)cc(O)cc4O)c(C)c-3nc2c1C [beta-amino-orcein],Inhibition of the aggregation of huntingtin in mammalian cells,[1],Inhibition of the aggregation
same,direct binding to amyloid-beta fibrils,[4],bind directly to amyloid-beta fibrils
"S=C1Nc2cccc3cccc(c23)N1 [1H,3H-perimidine-2-thione]",Inhibition of the aggregation of wild type Aβ1-42 (SDS-insoluble aggregates),[5],Inhibition of the aggregation
"CCN(CC)CCN(CC)c1nc2c(ccc3[nH]c(=O)c(C#N)cc32)s1 [2-[(2-diethylamino-ethyl)-ethyl-amino]-7-oxo-6,7-dihydro-thiazolo[4,5-f]quinoline-8-carbonitrile]",Inhibition of the aggregation of huntingtin (Exon-1) in mammalian cells,[2],Inhibition of the aggregation
c1cncc(C2=Nc3cccc4cccc(c34)N2)c1 [2-pyridine-3-yl-1H-perimidine],Inhibition of the aggregation of wild type Aβ1-42 (SDS-insoluble aggregates),[5],Inhibition of the aggregation
"Cc1cc(=O)cc2oc3cc(N)cc(C)c3nc1-2 [7-amino-1,9-dimethyl-phenoxazine-3-one]",Inhibition of the aggregation of huntingtin in mammalian cells,[1],Inhibition of the aggregation
"CN(C)CCN(Cc1ccccc1)c1nc2c(ccc3[nH]c(=O)c(C#N)cc32)s1 [2-[Benzyl-(2-dimethylamino-ethyl)-amino]7-oxo-6,7-dihydro-thiazolo[4,5-f]quinoline-8-carbonitrile]",Inhibition of the aggregation of huntingtin (Exon-1) in mammalian cells,[2],Inhibition of the aggregation
"Cc1cc(=O)cc2oc3cccc(C)c3nc1-2 [1,9-dimethyl-phenoxazine-3-one]",Inhibition of the aggregation of wild type Aβ1-42 (SDS-insoluble aggregates),[5],Inhibition of the aggregation
"Cc1cc(=O)cc2oc3cc(O)cc(C)c3nc1-2 [7-hydroxy-1,9-dimethyl-phenoxazine-3-one]",Inhibition of the aggregation of wild type Aβ1-42 (SDS-insoluble aggregates),[5],Inhibition of the aggregation
c1ccc2c(c1)Nc1ccccc1O2 [phenoxazine],direct binding to amyloid-beta fibrils,[4],bind directly to amyloid-beta fibrils
"CN(C)CCCN(C=O)c1nc2c(ccc3[nH]c(=O)c(C#N)cc32)s1 [N-(8-Cyano-7-oxo-6,7-dihydro-thiazolo[4,5-f]quinoline-2-yl)-N-(3-dimethylamino-propyl)-formamide]",Inhibition of the aggregation of huntingtin (Exon-1) in mammalian cells,[2],Inhibition of the aggregation
"CC1=Nc2cccc3cccc(c23)N1C [1,2-dimethyl-1H-perimidine]",Inhibition of the aggregation of wild type Aβ1-42 (SDS-insoluble aggregates),[5],Inhibition of the aggregation
N#Cc1ccc(C2=Nc3cccc4cccc(c34)N2)cc1 [4-(1H-perimidine-2-yl)-benzonitrile],Inhibition of the aggregation of wild type Aβ1-42 (SDS-insoluble aggregates),[5],Inhibition of the aggregation
"CC(=O)N(CCN(C)C)c1nc2c(ccc3[nH]c(=O)c(C#N)cc32)s1 [N-(8-Cyano-7-oxo-6,7-dihydro-thiazolo[4,5-f]quinoline-2-yl)-N-(2-dimethylamino-ethyl)-acetamide]",Inhibition of the aggregation of huntingtin (Exon-1) in mammalian cells,[2],Inhibition of the aggregation

# — patent US8710088B2, “Pharmaceutical and diagnostic compositions for use in the treatment and diagnosis of neurodegenerative diseases or amyloid diseases” (Max-Delbruck-Centrum fur Molekulare Medizin, priority 2004, dated 2014)
